Measurements: ChEMBL document CHEMBL5532634, “Oxazolidinone: A promising scaffold for the development of antibacterial drugs” (Eur J Med Chem, 2023)
Converted amounts (≈) assume the structure as drawn.

Test system: Mycobacterium tuberculosis
Test: Antimycobacterial activity against multi-drug resistant Mycobacterium tuberculosis assessed as reduction in bacterial growth
Format: functional

`CC(=O)NC[C@H]1CN(c2ccc(N3CCSCC3)c(F)c2)C(=O)O1` [SUTEZOLID] showed an MIC of 0.2 µg/mL (≈ 0.566 µM).
